The values below come from patent US20050222200A1, “AMIDE DERIVATIVES AS ION CHANNEL LIGANDS AND PHARMACEUTICAL COMPOSITIONS AND METHODS OF USING THE SAME” (Renovis, Inc., priority 2003, published 2005).

Molecules are shown by their SMILES.

The target in this assay is VR1 (Rattus norvegicus, UniProt O35433). Kind of assay: Calcium imaging assay: inhibition of capsaicin induced calcium influx in DRG neurons (Fura2, microscope). The arrangement: endogenous in cells; host or cells: DRG neurons. The assay is classed as cell-based. The conditions noted are these: capsaicin stimulation; class symbols per legend. The method, then: VR1 protein is a heat-gated cation channel that […] resulting in neuronal membrane depolarization and elevated intracellular calcium levels. Therefore the functional activity of compounds at the VR1 receptor may be determined by measuring changes in intracellular calcium levels in neurons such as the dorsal root ganglion.
VR1, sequence (O35433 whole entry): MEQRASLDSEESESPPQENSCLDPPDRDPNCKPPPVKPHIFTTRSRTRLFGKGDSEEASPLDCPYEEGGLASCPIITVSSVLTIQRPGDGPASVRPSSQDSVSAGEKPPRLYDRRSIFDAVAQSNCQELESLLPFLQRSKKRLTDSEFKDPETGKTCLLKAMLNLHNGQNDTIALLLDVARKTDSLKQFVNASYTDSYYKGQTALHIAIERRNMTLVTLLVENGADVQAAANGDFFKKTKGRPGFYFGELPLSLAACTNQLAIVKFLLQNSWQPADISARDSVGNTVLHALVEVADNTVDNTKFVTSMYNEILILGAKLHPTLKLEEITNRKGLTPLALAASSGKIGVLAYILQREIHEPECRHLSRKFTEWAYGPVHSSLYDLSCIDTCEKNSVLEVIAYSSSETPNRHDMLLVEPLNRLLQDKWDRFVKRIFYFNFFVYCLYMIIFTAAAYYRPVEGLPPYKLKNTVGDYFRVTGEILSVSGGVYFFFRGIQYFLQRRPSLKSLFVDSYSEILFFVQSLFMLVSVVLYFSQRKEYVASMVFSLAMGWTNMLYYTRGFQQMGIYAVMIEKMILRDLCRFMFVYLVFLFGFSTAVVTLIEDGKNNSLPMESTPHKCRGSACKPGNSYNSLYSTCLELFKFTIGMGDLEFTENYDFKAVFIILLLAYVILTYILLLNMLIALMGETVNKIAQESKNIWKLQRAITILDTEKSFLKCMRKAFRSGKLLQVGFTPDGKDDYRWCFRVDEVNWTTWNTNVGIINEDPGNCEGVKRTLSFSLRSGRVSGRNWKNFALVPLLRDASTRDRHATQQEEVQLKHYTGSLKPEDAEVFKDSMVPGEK
DRG neurons were grown on PDL coated 96-well black-walled plates, in the presence of DMEM medium containing 5% Penstrep, 5% Glutamax, 200 μg/ml hygromycin, 5 μg/ml blasticide and 10% heat inactivated FBS. Prior to assay, cells were loaded with 5 μg/ml Fura2 in normal saline solution at 37° C for 40 minutes. Cells were then washed with normal saline to remove dye before commencement of the experiment.
The plated neurons were transferred into a chamber on the stage of a Nikon eclipse TE300 microscope after which neurons were allowed to attain a stable fluorescence for about 10 minutes before beginning the experiment. The assay consists of two stages, a pretreatment phase followed by a treatment phase. First, a solution of the test compound was added from a multivalve perfusion system to the cells for 1 minute (pretreatment). Immediately following, capsaicin (250 nM) was added in the presence of the test compound (treatment) for a specific period between 20 and 60 seconds.
Fura2 was excited at […] to indicate relative calcium ion concentration. Changes in wavelength measurements were made throughout the course of the experiment. The fluorescence ratio was calculated by dividing fluorescence measured at 340 nm by that at 380 nM. Data was collected using Intelligent Imaging’s Slidebook software. All compounds that inhibited capsaicin induced calcium influx greater than 75% were considered positives.
Fluorescence reflecting calcium ion influx is reduced.
As for `CCN(CC)CCOC(=O)c1ccc(NC(=O)c2ccc(C#CC(C)(C)C)nc2)cc1` [Compound 413], the “inhibition of calcium ion influx induced by capsaicin stimulation” value (shortened to “inhibition of calcium ion influx induced”) is reported as “+ (compound exhibited 0-25% inhibition of calcium ion influx induced by capsaicin stimulation)”.

Regarding `CCC/C=C/c1ccc(C(=O)Nc2ccc(OC)nc2)cc1` [Compound 260], the “inhibition of calcium ion influx induced” value is recorded as “+ (compound exhibited 0-25% inhibition of calcium ion influx induced by capsaicin stimulation)”. As for `COc1cc(NC(=O)c2ccc(/C(C)=C/C(C)(C)C)cc2)cc(C(F)(F)F)c1` [Compound 337], the “inhibition of calcium ion influx induced” value is recorded as “+ (compound exhibited 0-25% inhibition of calcium ion influx induced by capsaicin stimulation)”. For the compound `CCC/C=C/c1ccc(C(=O)Nc2cc(OC)cc(C(F)(F)F)c2)cc1` [Compound 249], the “inhibition of calcium ion influx induced” value is on record as “+ (compound exhibited 0-25% inhibition of calcium ion influx induced by capsaicin stimulation)”.

Regarding `COc1cc(NC(=O)c2ccc(C#CC(C)(C)C)nc2)cc(C(F)(F)F)c1` [Compound 422], the “inhibition of calcium ion influx induced” value is listed as “++++ (compound exhibited 75% or greater inhibition of calcium ion influx induced by capsaicin stimulation)”.

`Cc1ccc(NC(=O)c2ccc(C#CC(C)(C)C)nc2)nc1` [Compound 432]: the “inhibition of calcium ion influx induced” value is “+ (compound exhibited 0-25% inhibition of calcium ion influx induced by capsaicin stimulation)”. As for `C/C(=C\C(C)(C)C)c1ccc(C(=O)Nc2ccncn2)cc1` [Compound 341], the entry is “+ (compound exhibited 0-25% inhibition of calcium ion influx induced by capsaicin stimulation)”. In the case of `COc1ccc(NC(=O)c2ccc(/C=C/C(F)(F)F)cc2)cn1` [Compound 406], the “inhibition of calcium ion influx induced” value is “++ (compound exhibited 25-50% inhibition of calcium ion influx induced by capsaicin stimulation)”.

`CCC/C=C/c1ccc(C(=O)Nc2ccc(CCCC)cc2)cc1` [Compound 248]: the “inhibition of calcium ion influx induced” value is listed as “+++ (compound exhibited 50-75% inhibition of calcium ion influx induced by capsaicin stimulation)”. As for `CCC/C=C/c1ccc(C(=O)NC2CCN(C)CC2)cc1` [Compound 237], the entry is “+ (compound exhibited 0-25% inhibition of calcium ion influx induced by capsaicin stimulation)”. For `O=C(Nc1ccc2c(c1)OCCO2)c1ccc(/C=C/C(F)(F)F)cc1` [Compound 397] the value was “+++ (compound exhibited 50-75% inhibition of calcium ion influx induced by capsaicin stimulation)”. For the compound `CCC/C=C/c1ccc(C(=O)Nc2ccc3[nH]ccc3c2)cc1` [Compound 252], the “inhibition of calcium ion influx induced” value is on record as “+ (compound exhibited 0-25% inhibition of calcium ion influx induced by capsaicin stimulation)”. Turning to `O=C(Nc1ccc(OC(F)(F)F)cc1)c1ccc(/C=C/C(F)(F)F)cc1` [Compound 399], the “inhibition of calcium ion influx induced” value was “++++ (compound exhibited 75% or greater inhibition of calcium ion influx induced by capsaicin stimulation)”.

Regarding `O=C(Nc1ccc(C(F)(F)F)cc1)c1ccc(/C=C/C(F)(F)F)cc1` [Compound 392], the “inhibition of calcium ion influx induced” value is on record as “+ (compound exhibited 0-25% inhibition of calcium ion influx induced by capsaicin stimulation)”. `CCC/C=C/c1ccc(C(=O)Nc2cccc(C#N)c2)cc1` [Compound 244]: the “inhibition of calcium ion influx induced” value was “++ (compound exhibited 25-50% inhibition of calcium ion influx induced by capsaicin stimulation)”. `CC(C)(C)C#Cc1ccc(C(=O)Nc2cccc(C(F)(F)F)c2)cn1` [Compound 424]: the “inhibition of calcium ion influx induced” value is on record as “+++ (compound exhibited 50-75% inhibition of calcium ion influx induced by capsaicin stimulation)”. As for `C/C(=C\C(C)(C)C)c1ccc(C(=O)Nc2ncc(C(F)(F)F)cc2Cl)cc1` [Compound 345], the “inhibition of calcium ion influx induced” value is “+ (compound exhibited 0-25% inhibition of calcium ion influx induced by capsaicin stimulation)”.
